The numbers were not newly measured in patent publication US20230083525A1, “NOVEL COMPOSITION FOR REDUCING STRESS DISORDERS” (SOCIETE DES PRODUITS NESTLE S.A., priority 2019, published 2023), which cites them from elsewhere.

The conditions of the series: value used to convert plasma AUC to production in the colon.

With `CC(=O)O` [acetate], the systemic availability is on record as 36%.

As for `CCCC(=O)O` [butyrate], the systemic availability is recorded as 2%.
